Reference: ChEMBL document CHEMBL3526039, “Electrophysiological characterization of the polyspecific organic cation transporter plasma membrane monoamine transporter” (Drug Metab Dispos, 2012)

What was measured:
[1] = molecular target: T1, Equilibrative nucleoside transporter 4 (Homo sapiens, UniProt Q7RTT9); experiment: Induction of human PMAT activity expressed in Xenopus laevis oocytes assessed as induction of inward current at 2.5 mM in NaCl buffer at pH 6 by two-microelectrode voltage-clamp method; assay type: cell-based; settings: pH 6, 2500 µM
T1 sequence (Q7RTT9 whole entry): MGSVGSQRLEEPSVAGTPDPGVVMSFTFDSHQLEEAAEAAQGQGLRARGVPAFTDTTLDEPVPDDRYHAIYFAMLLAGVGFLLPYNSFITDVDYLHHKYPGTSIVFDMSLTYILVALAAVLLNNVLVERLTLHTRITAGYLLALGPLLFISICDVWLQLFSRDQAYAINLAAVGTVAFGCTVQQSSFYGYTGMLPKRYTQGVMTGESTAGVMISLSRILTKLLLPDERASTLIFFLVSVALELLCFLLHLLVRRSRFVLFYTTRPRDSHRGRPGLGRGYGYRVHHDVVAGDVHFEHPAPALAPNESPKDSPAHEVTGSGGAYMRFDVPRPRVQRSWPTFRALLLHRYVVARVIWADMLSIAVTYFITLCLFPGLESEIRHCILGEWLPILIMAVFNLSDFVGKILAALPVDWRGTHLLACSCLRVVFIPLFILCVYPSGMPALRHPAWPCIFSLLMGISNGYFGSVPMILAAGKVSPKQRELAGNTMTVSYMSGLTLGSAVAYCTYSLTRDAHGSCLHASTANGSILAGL

[2] = molecular target: T1, Equilibrative nucleoside transporter 4; experiment: Induction of human PMAT activity expressed in Xenopus laevis oocytes assessed as induction of inward current at 2.5 mM in NaCl buffer at pH 7.5 by two-microelectrode voltage-clamp method; assay type: cell-based; settings: pH 7.5, 2500 µM
[3] = molecular target: T2, PMAT (equilibrative nucleoside transporter 4) (Homo sapiens, UniProt Q7RTT9); experiment: Increase of human PMAT-mediated drug uptake expressed in Xenopus laevis oocytes in NaCl buffer at pH 6 at 100 uM after 60 mins relative to control; settings: Xenopus laevis oocytes expressing human PMAT
T2 sequence (Q7RTT9 whole entry): T1 sequence (Q7RTT9 whole entry)

[4] = molecular target: T2, PMAT (equilibrative nucleoside transporter 4); experiment: in vitro; settings: not told, pH 6
[5] = molecular target: T2, PMAT (equilibrative nucleoside transporter 4); experiment: in vitro; settings: not told, pH 6; remark: listed apart in the source

Activity [1]	Activity [2]	uptake ratio at 1 h, 100 µM [3]	Km [4]	Km [5]	Compound
-21.2 nanoampere	-7.26 nanoampere	–	–	–	NC12CC3CC(CC(C3)C1)C2 [AMANTADINE]
-110 nanoampere	-30.5 nanoampere	2	10 mM	10 mM	NCCc1c[nH]cn1 [HISTAMINE]
-38 nanoampere	-2.02 nanoampere	–	–	–	CN(C)C(=N)N=C(N)N [METFORMIN]
-11.7 nanoampere	-0.627 nanoampere	–	–	–	CC[N+](CC)(CC)CC [TETRYLAMMONIUM]

Compound	Activity [1]	Activity [2]	uptake ratio at 1 h, 100 µM [3]	Km [4]	Km [5]
CN1CC=C(c2ccccc2)CC1	-62.7 nanoampere	-5.67 nanoampere	–	–	–
CN1CCC[C@H]1c1cccnc1 [NICOTINE]	-75.7 nanoampere	-6.3 nanoampere	–	–	–
